According to US20150148369A1, “CHEMICAL SUPPRESSORS OF NEUROTOXICITY IN SYNUCLEINOPATHIC DISEASES” (priority 2012, published 2015):
Values joined by “and” are separate entries in the source; they are usually repeats but may differ in a detail not shown here. Identical values can stand only once. “Also recorded” adds a separate entry of the source. Like-named read-outs stand apart in the source and are kept apart here.

Experiments:
[1] = test system: polyglutamine-expanded Huntingtin protein; settings: cited from earlier work; for polyglutamine protein aggregation: Huntington's disease (HD) model
[2] = in vivo, cited from earlier work
[3] = test system: gap junction; settings: cited from earlier work
[4] = test system: primary neurons expressing human mutant aSYN A30P; test: Primary neuronal culture, neurite morphology (Cellomics ArrayScan); assay type: cell-based, Drosophila; settings: for neurite length and branching in images vs DMSO controls: 60 nM, FIG. 1B, 1C
Method: Primary cell cultures are prepared from mid-gastrula stage embryos as described previously (Sepp et al., 2008). Briefly, embryos are collected on agar media plates and dechorionated in 50% bleach for 4 min., followed by rinsing with sterile distilled water. Embryos are homogenized in Shields and Sang M3 media (Sigma) in a Dounce homogenizer, and debris are pelleted by centrifugation at 40 g for 10 min and then 5 min. Neuroblasts are pelleted by centrifugation at 380G for 10 min. Cells are resuspended at 1×10^6 cells/mL in Shields and Sang M3 media supplemented with 10 U/mL penicillin, 10 ug/mL streptomycin, and 200 ng/mL insulin, and plated on 384-well plates (Corning) at 50 uL/well. Cells are incubated at 21° C. Compound is applied 24 hrs after cells are plated. Stock compounds (15 mM) and log dilutions (10^−1, 10^−2, 10^−3, 10^−4, and 10^−5) are prepared in DMSO, then each stock is further diluted 1/10 with media, and 1 uL of this working reagent is applied to culture wells. Cultures are matured for 7 days. Cultures are fixed and stained as described previously (Halter et al., 1995), using pan-neuronal marker anti-elav (1:10, Developmental Studies Hybridoma Bank), and anti-human aSYN (1:1000, Abeam), and dopaminergic neuron marker anti-tyrosine hydroxylase (1:1000, Millipore). Cultures are imaged on a Cellomics robotic fluorescence microscope, and morphologies are quantified with Cellomics ArrayScan algorithms and statistically processed with Prism software.
Primary cell cultures were prepared from mid-gastrula stage embryos as described previously (Sepp et al., 2008). Briefly, embryos are collected on agar media plates and dechorionated in 50% bleach for 4 min., followed by rinsing with sterile distilled water. Embryos were homogenized in Shields and Sang M3 media (Sigma) in a Dounce homogenizer, and debris pelleted by centrifugation at 40 g for 10 min and then 5 min. Neuroblasts were pelleted by centrifugation at 380G for 10 min. Cells were resuspended at 1×10^6 cells/mL in Shields and Sang M3 media supplemented with 10 U/mL penicillin, 10 ug/mL streptomycin, and 200 ng/mL insulin, and plated on 384-well plates (Corning) at 50 uL/well. Cells were incubated at 21° C. Compound was applied 24 hrs after cells were plated. Stock compounds (15 mM) and log dilutions (10^−1, 10^−2, 10^−3, 10^−4, and 10^−5) were prepared in DMSO, then each stock was further diluted 1/10 with media, and 1 uL of this working reagent was applied to culture wells. Cultures were matured for 7 days. Cultures were fixed and stained as described previously (Halter et al., 1995), using pan-neuronal marker anti-GFP (1:1000, Life Technologies), and anti-human aSYN (1:1000, Abcam). Cultures were imaged on a Cellomics robotic fluorescence microscope, and morphologies are quantified with Cellomics ArrayScan algorithms and statistically processed with Prism software.

[5] = test system: aSYN expressing larvae; test: Larval survival assay in liquid culture; assay type: in vivo, Drosophila; settings: for survival: after 4 days in liquid culture, DMSO 14%, untreated 13%
Method: (§1) Embryos are collected from transgenic strains and dispensed in 96-well plates containing liquid media culture (200 uL/well). Stock compounds (15, 15×10^−2, 15×10^−5 mM) prepared in DMSO, are diluted 1/10 with media, and then 1 uL of this working reagent is dispensed in culture wells. Percentage survival of mutant and negative control larvae are recorded on day 4 following compound administration. Data are plotted graphically.
as §1, with “Embryos were” for “Embryos are”, “DMSO, were” for “DMSO, are”, “reagent was” for “reagent is”, “Data were” for “Data are”, “plotted graphically with Prism software.” for “plotted graphically.”

[6] = biological target: HSD1 (Mus musculus, UniProt P50172); settings: i.p. 20 mg/kg, every other day for 2 months; cited from earlier work
Sequence of HSD1 (P50172 whole entry): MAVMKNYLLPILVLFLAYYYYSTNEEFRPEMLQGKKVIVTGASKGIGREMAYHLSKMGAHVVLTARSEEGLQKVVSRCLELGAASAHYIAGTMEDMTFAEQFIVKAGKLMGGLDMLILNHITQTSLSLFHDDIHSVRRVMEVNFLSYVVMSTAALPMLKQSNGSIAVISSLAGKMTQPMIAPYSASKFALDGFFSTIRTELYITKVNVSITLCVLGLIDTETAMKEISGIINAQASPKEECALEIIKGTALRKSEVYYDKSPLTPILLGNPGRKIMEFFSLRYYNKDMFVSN

[7] = test system: human mutant aSYN (AAV1/2 A53T α-Synuclein); test: Quantitative immunoblot of aSYN in AAV-aSYN rat model of Parkinson's disease; assay type: in vivo; settings: 37.4 ug/h into third ventricle; for aSYN protein levels in postmortem rat brain immunoblots: TPT vs vehicle
Text: An AAV 1/2-aSYN A53T vector delivery-based over-expression of aSYN in the rat substantia nigra was chosen to model PD synucleinopathy, since it replicates progressive nigrostriatal degeneration and basal ganglia-based motor features of PD better than existing stable transgenic models. Furthermore, time of symptom onset is far more predictable, thus reducing experimental noise. Viral vectors will be delivered as using stereotactic injection. Briefly, 20 Sprague Dawley rats (280 g, Charles River) were injected with AAV 1/2-aSYN A53T to the experimental hemisphere (right) and AAV1/2-GFP to the control hemisphere (left) using standard stereotaxic procedures and isoflurane/oxygen anesthesia. Vector (2 μL) was delivered by microinjector (Stoelting, Kiel, Wis.) at 0.2 μL/min with coordinates from Bregma: AP, −5.2 mm; ML, −2.0 mm; DV, −7.5 mm. Viral stock concentrations for both AAV1/2 GFP and AAV1/2-aSYN A53T were 1.7×10^12 gp/mL. Animals were housed in pairs at 20° C. with a 12 hr light/dark cycle with food and water ad libitum. Animals recovered were maintained with regular care for 3 weeks as viral gene expression of aSYN built to emerging pathological levels as characterized previously.
On Day 1 of Week 3, rats were fitted with osmotic mini-pumps to administer TPT to the third ventricle. Intracerebral administration was chosen to maximize the amount of drug given to the brain and minimize side effects in peripheral tissues. Using standard stereotaxic procedures, a 22-gauge guide cannula (Plastics One, Roanoake, Va.) was placed into the third ventricle (AP, −1.3 mm, ML, +0.0 mm; DV −4.6 mm with respect to bregma) of isoflurane/oxygen anesthetized rats, and anchored with dental acrylic. […]
Standard Western blot techniques are used on dissected postmortem tissues to determine if aSYN levels decrease in response to TPT treatment. […] Blots are imaged on an Odyssey Quantitative Fluorescence Imaging System. Two-tailed student's t-test is used Western blot quantifications.

[8] = Pharmacokinetic analysis: mass-spec of TPT in postmortem rat brain; assay type: in vivo; settings: osmotic pump into third ventricle, 37.4 ug/h
Text: On Day 1 of Week 3, rats were fitted with osmotic mini-pumps to administer TPT to the third ventricle. Intracerebral administration was chosen to maximize the amount of drug given to the brain and minimize side effects in peripheral tissues. Using standard stereotaxic procedures, a 22-gauge guide cannula (Plastics One, Roanoake, Va.) was placed into the third ventricle (AP, −1.3 mm, ML, +0.0 mm; DV −4.6 mm with respect to bregma) of isoflurane/oxygen anesthetized rats, and anchored with dental acrylic. Rats were bilaterally infused with TPT or vehicle using a mini-osmotic pulp (Alzet model 2ML2 pump, flow rate 5.0 uL/hr, Durect Corp. Cupertino) to the third ventricle, which was delivered for 2 weeks. The pumps were filled with 16.34 mM topotecan (TPT) (CPT06, Molcan Corporation) in 50 mM tartaric acid with 0.9% saline (delivered at 37.4 μg/h), or vehicle control alone. Upon cessation of drug on Day 7 of Week 4 or at some other time point, rats were sacrificed by an overdose of pentobarbital (1.0 mL of 240 mg/mL, i.p.) and exsanguinated by transcardial saline perfusion followed by 4% paraformaldehyde.
Postmortem brain samples were subjected to standard quadrupole mass […] analysis to determine brain penetration of TPT into tissue samples.

CC1(C)[C@@H](O)CC[C@]2(C)[C@H]3C(=O)C=C4[C@@H]5C[C@@](C)(C(=O)O)CC[C@]5(C)CC[C@@]4(C)[C@]3(C)CC[C@@H]12 [18β-glycyrrhetinic acid]
polyglutamine protein aggregation [1]: protect against polyglutamine protein aggregation | crossing of the blood-brain-barrier [2]: do not cross the blood-brain-barrier at high enough concentrations | gap junction blocking activity [3]: have gap junction blocking activity

CC[C@@]1(O)C(=O)OCc2c1cc1n(c2=O)Cc2cc3cc(O)ccc3nc2-1 [camptothecin-OH, 10-hydroxy-camptothecin]
neurite morphology profiles (image features) vs DMSO negative control ([4]; 30 nM): improved neurite morphology profiles | neurite outgrowth vs DMSO control ([4]; 30 nM, FIG. 1D): improved neurite outgrowth | total neurite length per well ([4]; 30 nM, Mean±SEM, n=4, DMSO vehicle 15240±799.8 (n=18), P<0.05, FIG. 1D): 20170±1430 um | survival ([5]; 'hi' dose 15 uM, n=5): 100% | survival compared to DMSO vehicle-treated controls ([5]; high dose 15 uM): improved survival

CC1(C)[C@@H](OC(=O)CCC(=O)O)CC[C@]2(C)[C@H]3C(=O)C=C4[C@@H]5C[C@@](C)(C(=O)O)CC[C@]5(C)CC[C@@]4(C)[C@]3(C)CC[C@@H]12 [carbenoxolone, (3β)-3-[(3-carboxy-propanoyl)oxy]-11-oxoolean-12-en-30-oic acid]
inhibition of target enzyme HSD1 [6]: effective at inhibiting the target enzyme HSD1 | neurite morphology profiles (image features) vs DMSO negative control ([4]; 30 nM): improved neurite morphology profiles | excessive branching vs DMSO vehicle controls ([4]; 30 nM, FIG. 1E): reduces the excessive branching phenotype; also recorded: reduced excessive branching | total branches per well ([4]; 30 nM, Mean±SEM, n=4, DMSO vehicle 4.416±0.2622 (n=16), P<0.05, FIG. 1E): 3.198±0.1825 | neurite length and branching in images vs DMSO controls [4]: longer neurites and reduced neuritic branching | polyglutamine protein aggregation [1]: protect against polyglutamine protein aggregation | lifespan and motor control ([1]; early dosing): extend Drosophila HD model lifespan and improves motor control | rescue of toxicity of polyglutamine-expanded Huntingtin protein ([1]; in vivo, Drosophila): in vivo rescue of toxicity | crossing of the blood-brain-barrier ([2]; concentrations needed for gap junction block): do not cross the blood-brain-barrier at high enough concentrations | gap junction blocking activity [3]: have gap junction blocking activity

C[C@@H](CN1CC(=O)NC(=O)C1)N1CC(=O)NC(=O)C1 [dexrazoxane, Dexrazoxane]
survival ([5]; 'med' dose 0.15 uM, n=9): 75% | survival compared to DMSO vehicle-treated controls ([5]; medium dose 0.15 uM): improved survival

CC[C@@]1(O)C(=O)OCc2c1cc1n(c2=O)Cc2cc3c(CN(C)C)c(O)ccc3nc2-1 [topotecan]
neurite outgrowth vs DMSO control ([4]; 30 nM, FIG. 1D): improved neurite outgrowth | neurite length and branching in images vs DMSO controls [4]: longer neurites and reduced neuritic branching | aSYN protein levels in postmortem rat brain immunoblots [7]: reduced aSYN protein levels; also recorded: inverse relationship | aSYN protein levels in postmortem rat brain immunoblots ([7]; listed as TPT): reduced in the TPT treatment with a dose-dependent trend | reduction in aSYN normalized to beta-Actin vs vehicle control ([7]; three rats, average 2725 ng TPT/g tissue): ~2 fold | average TPT brain level of three rats [8]: 2725 ng TPT/g tissue | TPT level in cortex, single rats ([8]; n=3 rats, listed as TPT): 6809 ng TPT/g tissue and 967 ng TPT/g tissue and 399 ng TPT/g tissue
